# Experimental data reported in patent US20240033244A1, “COMPOSITIONS AND METHODS FOR INHIBITING YTHDF1” (SHANGHAI INSTITUTE OF MATERIA MEDICA, CHINESE ACADEMY OF …, priority 2020, published 2024).
# Assays:
# YTHDF1 (361-559) [1] = molecular target: T1, YTHDF1 (361-559) (Homo sapiens, UniProt Q9BYJ9); assay: Fluorescence polarization (FP) assay, inhibition of m6A-containing mRNA binding to YTHDF1; settings: read-out: IC50, inhibition of interaction between m6A-containing mRNA and YTHDF1
# T1 construct: GST (N, cleaved yes); made in house; host or cells: E. coli BL21 (DE3)
# T1 sequence (Q9BYJ9 with tags, fused parts or gaps): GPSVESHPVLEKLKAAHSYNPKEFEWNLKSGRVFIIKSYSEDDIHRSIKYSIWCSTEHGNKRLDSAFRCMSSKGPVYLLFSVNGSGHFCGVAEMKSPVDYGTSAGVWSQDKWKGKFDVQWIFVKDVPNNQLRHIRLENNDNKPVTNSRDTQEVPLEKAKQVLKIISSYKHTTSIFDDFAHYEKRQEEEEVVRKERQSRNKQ
# Procedure: As for activity tests, 1.25 μM YTHDF1 (361-559) was incubated with candidate compounds diluted to concentrations as indicated for 30 minutes. The subsequent steps were similar to that of HTS. And an equal amount of DMSO was used as the negative control.
# His-YTHDF1 (361-559) = molecular target: T2, His-YTHDF1 (361-559) (Homo sapiens, UniProt Q9BYJ9); assay: AlphaScreen-based assay, m6A-containing mRNA binding to YTHDF1; settings: read-out: IC50, blocking binding between m6A and YTHDF1
# T2 construct: made in house; host or cells: E. coli BL21 (DE3)
# T2 sequence (Q9BYJ9 with tags, fused parts or gaps): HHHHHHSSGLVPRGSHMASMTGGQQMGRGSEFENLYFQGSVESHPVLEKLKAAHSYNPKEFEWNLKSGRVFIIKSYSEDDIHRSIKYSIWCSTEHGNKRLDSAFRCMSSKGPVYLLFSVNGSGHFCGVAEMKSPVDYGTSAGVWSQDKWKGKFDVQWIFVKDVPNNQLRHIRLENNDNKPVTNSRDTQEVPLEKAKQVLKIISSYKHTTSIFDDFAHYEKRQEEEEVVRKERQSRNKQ
# Procedure: Then 10 nM biotinylated m^6A-containing mRNA (5′-biotin-[…] (m^6A) CUGUG-3′) (SEQ ID NO: 15) was added to bind with YTHDF1 (361-559), and unbiotinylated m^6A-containing mRNA was used as the positive control. Before Alpha signal detection, streptavidin donor beads and anti-His acceptor beads were added into the white assay plate in subdued light (OptiPlate™-384, PerkinElmer) and incubated at 4° C. for 1 hour to ensure sufficient binding between biotin tag and streptavidin donor beads, as well as that between His tag and anti-His acceptor beads. Then the Alpha signal was detected on Envision Readers (PerkinElmer).
# YTHDF1 (361-559) [2] = molecular target: T1, YTHDF1 (361-559); assay: Hydrogen deuterium exchange mass spectrometry (HDX MS); assay type: binding; settings: HDX 10 s to 14400 s; many peptides HDX variation over 5%
# Procedure: YTHDF1 (361-559) was incubated with the compound (e.g., SAA) at 4° C. overnight before the measurement. In hydrogen deuterium exchange mass spectrometry (HDX MS), the hydrogen atoms of YTHDF1 (361-559)-apo and YTHDF1 (361-559)-SAA were exchanged with deuterium for 0 s, 10 s, 30 s, 60 s, 1200 s, 3600 s and 14400 s respectively at 10° C. in buffer containing 20 mM Hepes (pH 7.4), 200 mM NaCl and D2O. And the reactions were stopped at 0.5° C. using buffer containing 4 M guanidine hydrochloride, 0.5 M TCEP and 100 mM citric acid (pH 2.3). After deuterium label reaction, the samples were digested at 4° C. by pepsin immobilized on the column in order to obtain peptides of the samples. These peptides were next separated by HPLC and analyzed via mass spectrometry, respectively. HDX MS data was analyzed in HDExaminer software (v2.4.1) and +5% were set as the threshold to pick out those peptides with significant change.
# Then, hydrogen deuterium exchange mass spectrometry (HDX MS) experiment was conducted, to determine the binding sites of SAA on YTHDF1.
# OT-I T cells = assay: CFSE-labeled OT-I T cell proliferation in vitro; assay type: cell-based, mouse; settings: 5×10^5 CFSE-labeled OT-I T cells, various doses, 1 μg/mL OT-I peptide 24 hours
# Procedure: 1×10^7 lymphocytes form lymph nodes of naïve OT-I mice were washed with PBS twice, then resuspend in 1 mL PBS. 1 μL CFSE Tracker was added into suspension and incubated in 37° C. for 5 min. Then 5 mL RPMI-1640 medium with 10% FBS was added to stop CFSE labelling, incubated at room temperature for 5 min. After centrifugation, CFSE-labeled T cells were suspended with another 5 mL RPMI-1640 medium at least for 10 min in room temperature.
# In a further experiment, 5×10^5 CFSE-labeled OT-I T cells were treated with SAA of various doses in 96-well plates, then the cells were stimulated with 1 μg/mL OT-I peptide for 24 hours. Divided T cells were analyzed by FACS.
# FLT3L-DCs = assay: FLT3L-DC cross-priming of OT-I T cells in vitro (IFN-γ cytometric bead array); assay type: cell-based, mouse; settings: 10 μM SAA 12 hours
# Procedure: Bone marrow was isolated from wild-type and Ythdf1^−/− mice and treated with red cell lysis buffer to remove red blood cell. IMDM medium containing 10% fetal bovine serum was used to suspend bone marrow cells. To culture FLT3L-DCs, cell concentration was adjusted to 1×10^6/mL. Cells were cultured with 100 ng/mL FLT3L for 9 days to get mature FLT3L-DCs. Mature FLT3L-DCs were purified via EasySep Mouse CD11c Positive Selection Kit II, then treated with 10 μM SAA or DMSO in IMDM medium (contain 10% bovine and 100 ng/mL FLT3L) for 10 hours.
# For in vitro cross-presentation study, mature FLT3L-DCs were harvested on day 9 and purified by EasySep Mouse CD11 c Positive Selection Kit II, then treated with 10 μM SAA or DMSO in IMDM medium (contain 10% bovine and 100 ng/mL FLT3L) for 10 h. […] Then antigen-obtained DCs were purified and co-cultured with naïve T cells from OT-1 mice at a ratio of 1:10 for 96 h. The co-culture medium was 1640 RPMI contains 10% fetal bovine with or without 1 μg/mL OT-1 (OVA 257-264) peptide. […] Supernatant IFN-γ production was detected via CBA assay.
# Bone marrow derived cells (wildtype or Ythdf1 gene deficient) were cultured with FLT3L for 9 days to get FLT3L-DC and these DCs were treated with 10 μM SAA for 12 hours, then, FLT3L-DCs were co-cultured with necrotic B16-OVA tumor cell for 6 hours. […] IFN-γ production was assessed by IFN-γ cytometric bead array.
compound,measurement,setting,value
"O=C(/C=C/c1ccc(O)c(O)c1/C=C/c1ccc(O)c(O)c1)O[C@H](Cc1ccc(O)c(O)c1)C(=O)O [SAA, Salvianolic Acid A]",IC50,YTHDF1 (361-559) [1],2300 ± 110 nM
same,IC50,His-YTHDF1 (361-559),860 ± 60 nM
same,conformational change of YTHDF1 on binding (deuterium uptake),YTHDF1 (361-559) [2],significant conformational changes
same,T cell proliferation,OT-I T cells,could not influence T cell proliferation
same,cross-presentation function (IFN-γ production),FLT3L-DCs; Ythdf1-/- FLT3L-DCs,could also promote the cross-presentation function
same,cross-priming of T cells (IFN-γ production),FLT3L-DCs; wildtype FLT3L-DCs,better ability in cross-priming T cells than control group
